Here are results for two compounds from patent US20040067959A1, “Morphinoid derivatives as delta-opioid agonists and antagonists” (priority 2000, published 2004).

By Ki is commonly meant the dissociation constant of the complex between target and ligand, obtained from inhibition or displacement. A lower Ki goes with higher affinity.

The target of assay [1] is T1, human delta opioid receptors (Homo sapiens, UniProt P41143).
T1 construct: expressed in transfected cells; membranes
The assay is described as follows: radioligand binding assay, cloned human delta opioid receptor, [3H]-DADLE. The protocol:
(§1) The activity of the compounds of the present invention as selective delta ligands is determined in radioligand binding assays using cloned human delta, mu and kappa opioid receptors stably expressed in cell lines as described below.
(§2) CHO cells were subjected to stable transfection with cDNA encoding the human delta and mu opioid receptors. Clones were grown in suspension culture in serum free media. Selection was performed by growth in the absence of nucleotides.
(§3) Membranes were prepared as previously described (J. Med. Chem. 1997, 40 3192). The binding of the preferential delta ligand [^3H]-[D-Ala^2,D-Leu^5]-enkephalin (DADLE) was evaluated at its KD concentration (0.7 nM). The binding of the mu ligand [^3H]-DAMGO (Eur. J. Pharmacol., 1989, 166, 213) and of the kappa ligand [^3H]-U69593 (Excerpta Medica, 1990, 211) were carried out at 0.5 nM. Non specific binding was determined in the presence of 10 uM of naloxone. Binding data were expressed as percentage of inhibition and fitted the following equation: f(x)=100·X/(IC50+X) where X is the cold drug concentration value. The IC50 values obtained were used to calculate the inhibitory constants (Ki) according to the Cheng and Prusoff relation (Biochem. Pharmacol., 1973, 22, 3099).

The target in assay [2] is T2, human mu opioid receptors (Homo sapiens, UniProt P35372).
T2 construct: expressed in transfected cells; membranes
The assay is described as follows: radioligand binding assay, cloned human mu opioid receptor, [3H]-DAMGO. As to conditions: ratio of Ki at human mu ([3H]-DAMGO 0.5 nM) to Ki at human delta. The protocol:
as §1, §2, §3

T2 sequence (P35372 whole entry): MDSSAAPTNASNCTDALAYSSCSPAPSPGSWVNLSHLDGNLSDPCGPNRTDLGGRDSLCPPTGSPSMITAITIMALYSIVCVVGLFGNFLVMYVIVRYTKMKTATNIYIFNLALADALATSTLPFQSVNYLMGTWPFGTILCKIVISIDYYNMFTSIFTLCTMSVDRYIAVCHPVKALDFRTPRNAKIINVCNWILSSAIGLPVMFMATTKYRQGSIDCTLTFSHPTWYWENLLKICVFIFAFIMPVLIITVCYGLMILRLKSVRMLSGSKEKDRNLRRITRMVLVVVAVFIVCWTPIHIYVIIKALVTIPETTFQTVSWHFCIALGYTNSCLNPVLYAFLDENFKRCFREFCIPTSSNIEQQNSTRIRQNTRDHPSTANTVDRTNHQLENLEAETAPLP
T1 sequence (P41143 whole entry): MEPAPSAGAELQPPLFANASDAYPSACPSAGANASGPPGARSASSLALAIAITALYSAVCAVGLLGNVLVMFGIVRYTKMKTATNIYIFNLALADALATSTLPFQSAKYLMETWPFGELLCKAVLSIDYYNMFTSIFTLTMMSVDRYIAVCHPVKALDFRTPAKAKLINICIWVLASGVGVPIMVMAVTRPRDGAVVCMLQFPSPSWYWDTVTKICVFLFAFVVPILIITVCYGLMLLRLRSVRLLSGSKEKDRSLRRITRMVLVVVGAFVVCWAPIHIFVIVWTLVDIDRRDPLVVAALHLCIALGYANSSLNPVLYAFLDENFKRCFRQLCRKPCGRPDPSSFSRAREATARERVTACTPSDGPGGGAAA

In assay [1], `COc1ccc2c3c1O[C@H]1c4[nH]c(C(=O)N5CCN(c6ccc(C)cc6C)CC5)c(C)c4C[C@H]4[C@@H](C2)N(C)CC[C@]314` [Example 6] registered an inhibitory constant (Ki) of 1000 pM. In addition, the “Ki mu/Ki delta” value in assay [2] was determined as 437.

As to `COc1ccc(N2CCN(C(=O)c3[nH]c4c(c3C)C[C@H]3[C@H]5Cc6ccc(OC)c7c6[C@@]3(CCN5C)[C@H]4O7)CC2)c(OC)c1` [Example 23], in assay [1], the Ki is 600 pM. For the same compound, in assay [2], the “Ki mu/Ki delta” value was determined as 1010.
